Experimental data reported in patent US9475815B2, “Substituted benzothienyl-pyrrolotriazines and uses thereof” (Bayer Intellectual Property GmbH, priority 2012, dated 2016).
Counter-ions that a name gives are not always drawn. Like-named read-outs stand apart in the source and are kept apart here.

Tests used:
[1] = target: human mTOR (Homo sapiens (Human), UniProt P42345); assay: mTOR kinase assay (TR-FRET, for comparative purposes); type: biochemical; settings: for inhibition at 1 µM: read-out: mTOR % inhibition @ 1 μM, 1 μM test compound, 40 μM ATP, mean values; for mTOR % inhibition @ 1 μM: 1 μM test compound, 40 μM ATP, mean values
Description: mTOR inhibitory activity of the compounds of the present invention was quantified employing the TR-FRET based mTOR assay as described in the following paragraphs:
Test compounds were dissolved in DMSO to generate 10 mM stock solutions. These solutions were first 10-fold diluted by 100% DMSO to get 1 mM solutions in 100% DMSO, then 100-fold diluted by 50% DMSO to get 10 μM solutions in 50% DMSO.
(final concentration in the 10 μl assay volume=1 nM) in FRET buffer.
For this, the fluorescence emissions at 495 nm and 520 nm after excitation at 340 nm was measured in an Envision 2104 multilabel reader (Perkin-Elmer).

[2] = tested on: Human umbilical vein endothelial cells (HUVEC); assay: Inhibition of growth factor-mediated cell proliferation (hFGF-2); type: cell-based; settings: 72 h exposure, hFGF-2 stimulated, from averaged pIC50 values
Description: Human umbilical vein endothelial cells (HUVEC) were obtained from Cellsystems (FC-0003) and grown in Vasculife VEGF complete medium (Cellsystems, LL-1020) containing 2% fetal bovine serum (FBS) at 37° C. and 5% CO2. The cells were used for proliferation assays up to passage 7.
The HUVEC cells were harvested using accutase (PAA, L11-007) and seeded in columns 2 to 12 of 96-well plates (Falcon MICROTEST tissue culture plate 96-well flat bottom, BD 353075, or μCLEAR-PLATE, black, 96-well, Greiner Bio-One, No. 655090) at a cell density of 2500 cells/well in 100 μl Vasculife VEGF complete medium with column 1 remaining empty as blank. Cells were allowed to incubate at 37° C. and 5% CO2 for at least 6 h. Then, the cells were washed once with PBS and starved overnight in Vasculife basal medium (Cellsystems, LM-0002) containing heparin, ascorbate and L-glutamine (components of the Vasculife Life Factors Kit, Cellsystems, LL-1020) as well as 0.2% FBS.
After about 18 h, the starving medium was discarded, and the cells were exposed for 72 h to 9 consecutive log or half-log concentrations of test compound in the range of 10 pM to 30 μM and to 5, 10 or 20 ng/ml hFGF-2 (recombinant human FGF basic, R&D Systems, 233-FB) in 100 μl starving medium. 10 mM stock solutions of test compounds in DMSO were diluted to 200× final concentration in DMSO resulting in a final DMSO concentration of 0.5% in all wells. Controls consisted of cells grown in starving medium only and of cells grown in hFGF-2 containing starving medium with 0.5% DMSO. To determine cell proliferation, 5 μl Alamar Blue solution (Biosource, DAL1100) was added to each well (1:20 dilution), and the cells were allowed to incubate for further 4 h at 37° C. and 5% CO2 before measuring fluorescence (ex. 535 nm, em. 595 nm) with a Spectrafluor Plus Tecan plate reader (XFLUOR4 version 4.20). In some experiments, an ATP Determination Kit (BIAFFIN GmbH, LBR-T100) was used according to the manufacturer's instructions. In each experiment, samples were assayed in triplicate, and the standard deviations were determined GraphPad Prism 5 software was used to analyze the data and to obtain IC50 values. All test compounds were assayed 2 to 10 times in independent experiments and similar results were obtained.

[3] = target: human FGFR-1 (Homo sapiens, UniProt P11362); assay: FGFR-1 high ATP kinase assay (TR-FRET)
[4] = target: human FGFR-3 (Homo sapiens (Human), UniProt P22607); assay: FGFR-3 kinase assay (TR-FRET); type: biochemical; settings: 10 μM ATP, 15 min pre-incubation with enzyme
Chain of human FGFR-3 (P22607 397-806): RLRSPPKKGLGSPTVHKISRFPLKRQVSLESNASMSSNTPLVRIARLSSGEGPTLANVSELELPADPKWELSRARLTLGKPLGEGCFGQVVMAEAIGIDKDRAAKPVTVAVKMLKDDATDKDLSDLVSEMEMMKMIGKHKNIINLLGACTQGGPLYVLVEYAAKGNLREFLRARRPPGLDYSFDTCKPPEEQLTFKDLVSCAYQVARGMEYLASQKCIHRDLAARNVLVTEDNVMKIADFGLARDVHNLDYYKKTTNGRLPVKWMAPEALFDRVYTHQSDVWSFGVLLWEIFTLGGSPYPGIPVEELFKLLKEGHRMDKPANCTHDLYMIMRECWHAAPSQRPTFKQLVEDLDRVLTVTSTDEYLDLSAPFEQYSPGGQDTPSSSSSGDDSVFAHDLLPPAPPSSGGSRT

Chain of human FGFR-1 (P11362 22-822 limits assumed): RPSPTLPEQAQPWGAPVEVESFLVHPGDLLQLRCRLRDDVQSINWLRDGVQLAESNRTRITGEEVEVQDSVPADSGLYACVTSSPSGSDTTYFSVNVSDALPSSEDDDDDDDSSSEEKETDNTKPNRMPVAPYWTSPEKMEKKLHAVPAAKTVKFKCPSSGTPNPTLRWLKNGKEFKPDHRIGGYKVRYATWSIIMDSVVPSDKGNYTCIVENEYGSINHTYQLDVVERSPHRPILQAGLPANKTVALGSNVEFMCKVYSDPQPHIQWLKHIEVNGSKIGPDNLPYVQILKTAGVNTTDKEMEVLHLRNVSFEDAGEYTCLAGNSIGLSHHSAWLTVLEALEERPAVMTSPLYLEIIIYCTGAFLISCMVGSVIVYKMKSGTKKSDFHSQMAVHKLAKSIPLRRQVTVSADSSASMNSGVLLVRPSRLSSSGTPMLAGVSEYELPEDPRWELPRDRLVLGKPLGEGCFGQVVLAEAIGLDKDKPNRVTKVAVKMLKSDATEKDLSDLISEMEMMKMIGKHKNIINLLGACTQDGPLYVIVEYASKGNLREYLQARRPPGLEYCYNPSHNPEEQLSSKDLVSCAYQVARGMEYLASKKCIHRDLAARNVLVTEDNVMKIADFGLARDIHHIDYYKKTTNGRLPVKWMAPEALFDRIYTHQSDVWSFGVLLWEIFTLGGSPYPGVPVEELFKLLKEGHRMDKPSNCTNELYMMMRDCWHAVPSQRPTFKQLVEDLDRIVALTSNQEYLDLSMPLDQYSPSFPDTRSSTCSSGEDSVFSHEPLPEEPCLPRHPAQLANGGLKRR
Chain of human mTOR (P42345 1360-2549): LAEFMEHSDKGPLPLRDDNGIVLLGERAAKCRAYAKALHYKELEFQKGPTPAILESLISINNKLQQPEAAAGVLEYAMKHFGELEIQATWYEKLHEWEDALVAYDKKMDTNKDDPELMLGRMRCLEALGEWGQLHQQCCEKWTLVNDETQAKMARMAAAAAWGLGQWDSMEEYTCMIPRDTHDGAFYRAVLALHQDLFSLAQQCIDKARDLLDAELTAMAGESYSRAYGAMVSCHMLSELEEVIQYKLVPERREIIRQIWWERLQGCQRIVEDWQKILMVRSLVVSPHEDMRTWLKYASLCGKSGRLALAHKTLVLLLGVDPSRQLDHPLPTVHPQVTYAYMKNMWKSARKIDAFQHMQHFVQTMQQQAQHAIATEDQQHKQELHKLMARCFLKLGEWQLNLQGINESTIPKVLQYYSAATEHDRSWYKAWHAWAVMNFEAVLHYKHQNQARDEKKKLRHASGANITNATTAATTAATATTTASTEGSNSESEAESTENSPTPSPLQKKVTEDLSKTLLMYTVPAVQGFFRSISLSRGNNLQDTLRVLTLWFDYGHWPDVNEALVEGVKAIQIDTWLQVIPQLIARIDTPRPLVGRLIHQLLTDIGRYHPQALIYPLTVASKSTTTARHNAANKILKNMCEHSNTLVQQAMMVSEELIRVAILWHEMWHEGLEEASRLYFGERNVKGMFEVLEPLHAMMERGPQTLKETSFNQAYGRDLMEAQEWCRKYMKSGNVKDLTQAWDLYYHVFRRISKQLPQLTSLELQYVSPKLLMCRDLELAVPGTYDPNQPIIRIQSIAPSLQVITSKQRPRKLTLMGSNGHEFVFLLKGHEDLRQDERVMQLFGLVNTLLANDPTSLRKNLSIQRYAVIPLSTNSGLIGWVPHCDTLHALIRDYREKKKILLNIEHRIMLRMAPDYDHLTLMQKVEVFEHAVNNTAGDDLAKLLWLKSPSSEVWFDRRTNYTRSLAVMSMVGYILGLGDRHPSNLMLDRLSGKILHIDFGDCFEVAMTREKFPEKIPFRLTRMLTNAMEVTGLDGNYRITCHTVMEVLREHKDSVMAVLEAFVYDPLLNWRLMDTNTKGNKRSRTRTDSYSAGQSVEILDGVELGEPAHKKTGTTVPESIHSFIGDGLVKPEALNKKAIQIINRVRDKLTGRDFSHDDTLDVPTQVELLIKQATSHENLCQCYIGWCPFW

COc1cc(C)cc2cc(-c3cc(CN4CCNC(C(N)=O)C4)n4ncnc(N)c34)sc12 (racemic) [Example 7, rac-4-{[4-Amino-5-(7-methoxy-5-methyl-1-benzothiophen-2-yl)pyrrolo[2,1-f][1,2,4]triazin-7-yl]-methyl}piperazine-2-carboxamide trihydrochloride]
inhibition at 1 µM [1]: 43.7% | IC50 ([2]; Homo sapiens, HUVEC, 72 h): 44 nM | IC50 [3]: 7.8 nM

CNC1CCN(Cc2cc(-c3cc4cc(C)cc(OC)c4s3)c3c(N)ncnn23)C1 (stereo not drawn) [Example 41]
inhibition at 1 µM [1]: 25.9% | IC50 ([2]; Homo sapiens, HUVEC, 72 h): 49 nM | IC50 [3]: 7.3 nM

COc1cc(C)cc2cc(-c3cc(CN4CCNCC4)n4ncnc(N)c34)sc12 [Example 1, 5-(7-Methoxy-5-methyl-1-benzothiophen-2-yl)-7-(piperazin-1-ylmethyl)pyrrolo[2,1-f][1,2,4]-triazin-4-amine trihydrochloride hydrate]
inhibition at 1 µM [1]: 17.6% | IC50 ([2]; trihydrochloride hydrate): 36 nM | IC50 [3]: 9.9 nM

CNCCOCc1cc(-c2cc3cc(C)cc(OC)c3s2)c2c(N)ncnn12 [Example 117]
IC50 [4]: 34.8 nM | inhibition at 1 µM [1]: 0.3% | IC50 [3]: 36.1 nM

COc1cc(C)cc2cc(-c3cc(CNC4CCCC4O)n4ncnc(N)c34)sc12 (stereo not drawn) [Example 83]
IC50 [4]: 97.9 nM | inhibition at 1 µM [1]: 18.3% | IC50 [3]: 98.6 nM

COc1cc(C)cc2cc(-c3cc(CN(C)C4CCS(=O)(=O)C4)n4ncnc(N)c34)sc12 (stereo not drawn) [Example 74]
IC50 [4]: 87.1 nM | inhibition at 1 µM [1]: 46.9% | IC50 [3]: 68.3 nM

COc1cc(C)cc2cc(-c3cc(CN4CC[C@@H](O)C4)n4ncnc(N)c34)sc12 [Example 84]
IC50 [4]: 39.1 nM | inhibition at 1 µM [1]: 15.3% | IC50 [3]: 38.9 nM

CCC(N)COCc1cc(-c2cc3cc(C)cc(OC)c3s2)c2c(N)ncnn12 (stereo not drawn) [Example 112]
IC50 [4]: 102 nM | inhibition at 1 µM [1]: 8.8% | IC50 [3]: 67.2 nM

COc1cc(C)cc2cc(-c3cc(COCC(C)N)n4ncnc(N)c34)sc12 (stereo not drawn) [Example 119]
IC50 [4]: 29.7 nM | inhibition at 1 µM [1]: 25.1% | IC50 [3]: 26.7 nM

COc1cc(C)cc2cc(-c3cc(CN4CCNC(=O)C4)n4ncnc(N)c34)sc12 [Example 8, 4-{[4-Amino-5-(7-methoxy-5-methyl-1-benzothiophen-2-yl)pyrrolo[2,1-f][1,2,4]triazin-7-yl]-methyl}piperazin-2-one dihydrochloride]
inhibition at 1 µM [1]: 45.9% | IC50 ([2]; Homo sapiens, HUVEC, 72 h): 370 nM | IC50 [3]: 29 nM

COc1cc(C)cc2cc(-c3cc(CN4CC[C@@H](N(C)C)C4)n4ncnc(N)c34)sc12 [Example 90]
IC50 [4]: 30.3 nM | inhibition at 1 µM [1]: 22.7% | IC50 [3]: 26 nM

COc1cc(C)cc2cc(-c3cc(CNCCO)n4ncnc(N)c34)sc12 [Example 72]
IC50 [4]: 47.2 nM | mTOR % inhibition @ 1 μM [1]: no inhib. effect detect. | IC50 [3]: 65 nM

COc1cc(C)cc2cc(-c3cc(C(=O)N4CCC(O)CC4)n4ncnc(N)c34)sc12 [Example 101]
IC50 [4]: 29.1 nM | inhibition at 1 µM [1]: 24.9% | IC50 [3]: 29.8 nM

CCNC(=O)COCc1cc(-c2cc3cc(C)cc(OC)c3s2)c2c(N)ncnn12 [Example 114]
IC50 [4]: 30.5 nM | inhibition at 1 µM [1]: 27.7% | IC50 [3]: 65.3 nM

COc1cc(C)cc2cc(-c3cc(CN4CC5CNCC5C4)n4ncnc(N)c34)sc12 (stereo not drawn) [Example 23]
IC50 [4]: 69.4 nM | inhibition at 1 µM [1]: 28.1% | IC50 [3]: 19.3 nM

COc1cc(C)cc2cc(-c3cc(CN4CCNCC4)n4ncnc(N)c34)sc12 [Example 2, 5-(7-Methoxy-5-methyl-1-benzothiophen-2-yl)-7-(piperazin-1-ylmethyl)pyrrolo[2,1-f][1,2,4]-triazin-4-amine]
mTOR % inhibition @ 1 μM [1]: 22.8% | IC50 [2]: 127 nM | IC50 ([3]; read-out: FGFR-1 (high ATP) IC50, 2 mM ATP, 15 min pre-incubation with enzyme): 20.1 nM

COc1cc(C)cc2cc(-c3cc(CN4CCC(CO)CC4)n4ncnc(N)c34)sc12 [Example 73]
IC50 [4]: 64.8 nM | inhibition at 1 µM [1]: 17.2% | IC50 [3]: 66.6 nM

COc1cc(C)cc2cc(-c3cc(COCCN)n4ncnc(N)c34)sc12 [Example 120]
IC50 [4]: 53.9 nM | inhibition at 1 µM [1]: 14.8% | IC50 [3]: 50.8 nM

COc1cc(C)cc2cc(-c3cc(C(=O)N4CCC(N(C)C)C4)n4ncnc(N)c34)sc12 (stereo not drawn) [Example 100]
IC50 [4]: 35.9 nM | inhibition at 1 µM [1]: 15.9% | IC50 [3]: 20.7 nM

COc1cc(C)cc2cc(-c3cc(CN4CC(O)C(NCCO)C4)n4ncnc(N)c34)sc12 (stereo not drawn) [Example 21]
IC50 [4]: 8 nM | inhibition at 1 µM [1]: 37.6% | IC50 [3]: 13.2 nM

COc1cc(C)cc2cc(-c3cc(COC[C@@H]4CCCN4)n4ncnc(N)c34)sc12 [Example 109]
IC50 [4]: 37.1 nM | mTOR % inhibition @ 1 μM [1]: no inhib. effect detect. | IC50 [3]: 65.6 nM

COc1cc(C)cc2cc(-c3cc(CNC4CCN(C)CC4)n4ncnc(N)c34)sc12 [Example 69]
IC50 [4]: 59.9 nM | inhibition at 1 µM [1]: 4.6% | IC50 [3]: 59.5 nM

COc1cc(C)cc2cc(-c3cc(CN4CCCC(O)C4)n4ncnc(N)c34)sc12 (stereo not drawn) [Example 70]
IC50 [4]: 57.7 nM | inhibition at 1 µM [1]: 27.9% | IC50 [3]: 62 nM

COc1cc(C)cc2cc(-c3cc(COC[C@H](C)N)n4ncnc(N)c34)sc12 [Example 111]
IC50 [4]: 85.6 nM | inhibition at 1 µM [1]: 1.1% | IC50 [3]: 82.2 nM

CCCc1nccn1Cc1cc(-c2cc3cc(C)cc(OC)c3s2)c2c(N)ncnn12 [Example 121]
IC50 [4]: 65.9 nM | inhibition at 1 µM [1]: 26.8% | IC50 [3]: 33.3 nM

COCCN(C)Cc1cc(-c2cc3cc(C)cc(OC)c3s2)c2c(N)ncnn12 [Example 76]
IC50 [4]: 73.7 nM | inhibition at 1 µM [1]: 29.9% | IC50 [3]: 83 nM

COc1cc(C)cc2cc(-c3cc(CNCC4CCN(C)CC4)n4ncnc(N)c34)sc12 [Example 61]
IC50 [4]: 43.5 nM | inhibition at 1 µM [1]: 8.6% | IC50 [3]: 39.7 nM

CCN(Cc1cc(-c2cc3cc(C)cc(OC)c3s2)c2c(N)ncnn12)C(C)CO (stereo not drawn) [Example 77]
IC50 [4]: 82.3 nM | inhibition at 1 µM [1]: 20.2% | IC50 [3]: 84.1 nM

COc1cc(C)cc2cc(-c3cc(CN4CCC(O)CC4)n4ncnc(N)c34)sc12 [Example 88]
IC50 [4]: 21.3 nM | inhibition at 1 µM [1]: 29.5% | IC50 [3]: 15.7 nM

COc1cc(C)cc2cc(-c3cc(C(=O)N4CC[C@](C)(N)C4)n4ncnc(N)c34)sc12 [Example 97, [4-Amino-5-(7-methoxy-5-methyl-1-benzothiophen-2-yl)pyrrolo[2,1-f][1,2,4]triazin-7-yl][(3S)-3-amino-3-methylpyrrolidin-1-yl]methanone dihydrochloride]
IC50 [4]: 9.9 nM | inhibition at 1 µM [1]: 16.7% | IC50 [3]: 4.7 nM

COc1cc(C)cc2cc(-c3cc(COCCNC(C)C)n4ncnc(N)c34)sc12 [Example 115]
IC50 [4]: 63.9 nM | inhibition at 1 µM [1]: 6.5% | IC50 [3]: 78.6 nM

COc1cc(C)cc2cc(-c3cc(CN4CCC5CN(C)CC54)n4ncnc(N)c34)sc12 (stereo not drawn) [Example 24]
IC50 [4]: 119 nM | inhibition at 1 µM [1]: 17.3% | IC50 [3]: 34.1 nM

COc1cc(C)cc2cc(-c3cc(COCCN4CCCC4)n4ncnc(N)c34)sc12 [Example 107, 5-(7-Methoxy-5-methyl-1-benzothiophen-2-yl)-7-{[2-(pyrrolidin-1-yl)ethoxy]methyl}pyrrolo-[2,1-f][1,2,4]triazin-4-amine hydrochloride]
IC50 [4]: 46.1 nM | inhibition at 1 µM [1]: 15% | IC50 [3]: 57.3 nM

COc1cc(C)cc2cc(-c3cc(CN4CC(N(C)C)C4)n4ncnc(N)c34)sc12 [Example 66]
IC50 [4]: 67.2 nM | inhibition at 1 µM [1]: 5.9% | IC50 [3]: 49.6 nM

COc1cc(C)cc2cc(-c3cc(CN[C@@H](C)C(N)=O)n4ncnc(N)c34)sc12 [Example 85]
IC50 [4]: 22.1 nM | inhibition at 1 µM [1]: 28.2% | IC50 [3]: 45.4 nM
